Measurements as given in patent US20020128228A1, “Compositions and methods for the treatment of cancer” (priority 2000, published 2002).
Like-named read-outs stand apart in the source and are kept apart here.

How the values were obtained:
[1] = after intravenous administration; cited from earlier work
[2] = single dose schedule, cited from earlier work

SMILES	recurrence (malignant melanoma; single treatment with thalidomide continued for one year)	metastases and adenopathy (malignant melanoma; thalidomide alone, maximum 200 mg/d, after dacarbazine was discontinued, additional 3 months)	half life distribution (plasma, biexponential decline) [1]	nausea and vomiting ([2]; dosages up to 700 mg/m^2)	nausea and vomiting ([2]; doses higher than 700 mg/m^2)
O=C1CCC(N2C(=O)c3ccccc3C2=O)C(=O)N1 (racemic) [thalidomide, 2-(2,6-dioxo-3-piperidinyl)-1H-isoindole-1,3(2H)-dione]	only recurrence in the leg	resolution of the metastases continued and virtually no adenopathy was detected	–	–	–
Cn1nnc2c(C(N)=O)ncn2c1=O [temozolomide, 8-carbamoyl-3-methyl-imidazo-[5.1.d]-1,2,3,5-tetrazin-4(3H)-one]	–	–	1.8 h	mild	Grade 4 toxicity
